Experimental data published in US20120122860A1, “SOLID FORMS OF SULFONAMIDES AND AMINO ACIDS” (Plexxikon, Inc., priority 2009, published 2012).
pIC50: −log10 of the molar value.

Key:
B-Raf = B-Raf (Homo sapiens, UniProt P15056); experiment: Kinase activity assay, B-Raf; format: biochemical; conditions: read-out: activity toward kinase B-Raf, IC50
B-Raf V600E = B-Raf V600E (Homo sapiens, UniProt P15056, V600E); experiment: Kinase activity assay, B-Raf V600E; format: biochemical; conditions: read-out: activity toward kinase B-Raf V600E, IC50
Btk = Btk (Homo sapiens, UniProt Q06187); experiment: Kinase activity assay, Btk
Kdr = Kdr (Homo sapiens, UniProt P35968); experiment: Kinase activity assay, Kdr
Kit = Kit (Homo sapiens, UniProt P10721); experiment: Kinase activity assay, Kit
Src = Src (Homo sapiens, UniProt P12931); experiment: Kinase activity assay, Src
TEC = target: T1, TEC (Homo sapiens, UniProt P42680); experiment: Kinase activity assay, TEC
T1 sequence (P42680 1-631): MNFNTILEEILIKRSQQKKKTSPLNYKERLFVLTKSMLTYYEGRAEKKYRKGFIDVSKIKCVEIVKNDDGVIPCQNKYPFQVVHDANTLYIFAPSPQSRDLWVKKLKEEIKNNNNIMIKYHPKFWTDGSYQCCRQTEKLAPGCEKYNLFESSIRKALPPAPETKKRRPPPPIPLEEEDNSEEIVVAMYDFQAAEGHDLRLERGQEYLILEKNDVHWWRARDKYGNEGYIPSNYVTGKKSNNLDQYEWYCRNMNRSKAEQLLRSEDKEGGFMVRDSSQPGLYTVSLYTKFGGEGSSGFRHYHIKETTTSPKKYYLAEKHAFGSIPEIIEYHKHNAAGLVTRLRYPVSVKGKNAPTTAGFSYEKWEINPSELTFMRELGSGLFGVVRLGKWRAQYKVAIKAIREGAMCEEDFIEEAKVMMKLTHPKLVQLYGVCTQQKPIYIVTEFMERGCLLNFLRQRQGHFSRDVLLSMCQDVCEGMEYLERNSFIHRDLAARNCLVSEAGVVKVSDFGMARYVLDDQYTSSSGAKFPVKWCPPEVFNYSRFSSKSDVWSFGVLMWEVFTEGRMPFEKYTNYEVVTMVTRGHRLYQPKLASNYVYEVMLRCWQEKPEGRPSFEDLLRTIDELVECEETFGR

C-Raf = C-Raf (Homo sapiens, UniProt P04049); experiment: Kinase activity assay, C-Raf
PI3Kα = PI3Kα (Homo sapiens, UniProt P42336); experiment: Kinase activity assay, PI3Kα
MAP4K4 = MAP4K4 (Homo sapiens, UniProt O95819); experiment: Kinase activity assay, MAP4K4

Measured: pIC50

C-Raf, sequence (P04049 whole entry): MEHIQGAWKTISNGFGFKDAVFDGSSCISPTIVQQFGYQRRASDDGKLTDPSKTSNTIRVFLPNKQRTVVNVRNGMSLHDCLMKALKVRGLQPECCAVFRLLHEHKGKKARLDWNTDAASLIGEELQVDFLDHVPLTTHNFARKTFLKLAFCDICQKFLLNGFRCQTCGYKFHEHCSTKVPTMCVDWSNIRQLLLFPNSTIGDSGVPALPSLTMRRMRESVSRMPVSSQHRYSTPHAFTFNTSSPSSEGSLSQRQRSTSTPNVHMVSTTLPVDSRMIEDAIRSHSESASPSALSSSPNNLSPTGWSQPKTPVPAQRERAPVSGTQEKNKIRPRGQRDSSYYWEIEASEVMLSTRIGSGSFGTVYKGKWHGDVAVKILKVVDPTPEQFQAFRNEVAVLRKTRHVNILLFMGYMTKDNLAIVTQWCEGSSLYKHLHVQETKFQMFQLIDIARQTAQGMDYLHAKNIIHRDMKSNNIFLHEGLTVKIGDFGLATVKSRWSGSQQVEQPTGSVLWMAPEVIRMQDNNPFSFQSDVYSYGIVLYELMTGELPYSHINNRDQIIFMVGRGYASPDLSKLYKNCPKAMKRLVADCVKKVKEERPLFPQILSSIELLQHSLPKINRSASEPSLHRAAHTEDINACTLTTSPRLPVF
PI3Kα, sequence (P42336 whole entry): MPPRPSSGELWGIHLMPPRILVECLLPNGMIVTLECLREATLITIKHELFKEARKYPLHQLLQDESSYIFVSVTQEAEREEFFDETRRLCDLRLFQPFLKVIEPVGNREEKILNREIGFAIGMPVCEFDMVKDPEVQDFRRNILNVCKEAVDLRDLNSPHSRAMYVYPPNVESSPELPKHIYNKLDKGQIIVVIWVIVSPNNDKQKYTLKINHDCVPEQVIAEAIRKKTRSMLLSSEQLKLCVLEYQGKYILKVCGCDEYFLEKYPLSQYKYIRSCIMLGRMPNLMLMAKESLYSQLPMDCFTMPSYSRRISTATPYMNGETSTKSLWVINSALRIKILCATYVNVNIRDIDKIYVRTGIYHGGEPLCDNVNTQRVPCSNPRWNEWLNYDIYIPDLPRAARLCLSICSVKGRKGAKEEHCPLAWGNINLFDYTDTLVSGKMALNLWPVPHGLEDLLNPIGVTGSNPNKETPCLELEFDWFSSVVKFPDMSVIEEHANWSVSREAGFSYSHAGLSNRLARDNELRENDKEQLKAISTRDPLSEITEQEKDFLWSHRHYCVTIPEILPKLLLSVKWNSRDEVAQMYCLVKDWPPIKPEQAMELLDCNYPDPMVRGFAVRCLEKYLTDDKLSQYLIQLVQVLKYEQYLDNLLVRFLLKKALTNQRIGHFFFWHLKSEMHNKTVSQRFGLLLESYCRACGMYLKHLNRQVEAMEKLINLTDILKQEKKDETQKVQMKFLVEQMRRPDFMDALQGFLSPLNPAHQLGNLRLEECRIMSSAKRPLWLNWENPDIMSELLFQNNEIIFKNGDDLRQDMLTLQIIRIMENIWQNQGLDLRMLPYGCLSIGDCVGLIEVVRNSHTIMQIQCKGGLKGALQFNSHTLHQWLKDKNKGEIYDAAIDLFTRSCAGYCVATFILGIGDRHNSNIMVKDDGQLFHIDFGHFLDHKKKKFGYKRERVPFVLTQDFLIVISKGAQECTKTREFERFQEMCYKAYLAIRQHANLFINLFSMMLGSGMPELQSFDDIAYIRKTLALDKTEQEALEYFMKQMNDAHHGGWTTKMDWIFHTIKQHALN
PI3Kα, sequence (P27986 whole entry partner): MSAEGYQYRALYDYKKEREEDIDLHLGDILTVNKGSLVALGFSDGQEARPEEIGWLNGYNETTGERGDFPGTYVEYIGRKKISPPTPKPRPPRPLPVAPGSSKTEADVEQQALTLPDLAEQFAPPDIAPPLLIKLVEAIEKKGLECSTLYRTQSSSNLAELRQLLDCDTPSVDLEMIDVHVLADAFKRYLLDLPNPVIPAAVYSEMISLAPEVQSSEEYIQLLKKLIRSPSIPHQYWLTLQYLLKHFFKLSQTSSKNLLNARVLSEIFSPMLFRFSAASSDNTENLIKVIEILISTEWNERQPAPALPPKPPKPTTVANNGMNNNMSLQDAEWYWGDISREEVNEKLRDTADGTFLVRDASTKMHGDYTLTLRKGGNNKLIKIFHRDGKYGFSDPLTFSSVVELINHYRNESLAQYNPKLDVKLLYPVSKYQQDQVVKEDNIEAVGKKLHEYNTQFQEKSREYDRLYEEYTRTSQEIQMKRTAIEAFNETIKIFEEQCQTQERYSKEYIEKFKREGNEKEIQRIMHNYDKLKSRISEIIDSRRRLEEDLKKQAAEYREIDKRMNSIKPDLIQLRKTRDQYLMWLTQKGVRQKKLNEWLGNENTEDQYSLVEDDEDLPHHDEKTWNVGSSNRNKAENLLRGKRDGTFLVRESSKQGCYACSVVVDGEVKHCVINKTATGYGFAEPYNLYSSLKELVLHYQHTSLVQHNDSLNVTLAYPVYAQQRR
B-Raf, sequence (P15056 whole entry): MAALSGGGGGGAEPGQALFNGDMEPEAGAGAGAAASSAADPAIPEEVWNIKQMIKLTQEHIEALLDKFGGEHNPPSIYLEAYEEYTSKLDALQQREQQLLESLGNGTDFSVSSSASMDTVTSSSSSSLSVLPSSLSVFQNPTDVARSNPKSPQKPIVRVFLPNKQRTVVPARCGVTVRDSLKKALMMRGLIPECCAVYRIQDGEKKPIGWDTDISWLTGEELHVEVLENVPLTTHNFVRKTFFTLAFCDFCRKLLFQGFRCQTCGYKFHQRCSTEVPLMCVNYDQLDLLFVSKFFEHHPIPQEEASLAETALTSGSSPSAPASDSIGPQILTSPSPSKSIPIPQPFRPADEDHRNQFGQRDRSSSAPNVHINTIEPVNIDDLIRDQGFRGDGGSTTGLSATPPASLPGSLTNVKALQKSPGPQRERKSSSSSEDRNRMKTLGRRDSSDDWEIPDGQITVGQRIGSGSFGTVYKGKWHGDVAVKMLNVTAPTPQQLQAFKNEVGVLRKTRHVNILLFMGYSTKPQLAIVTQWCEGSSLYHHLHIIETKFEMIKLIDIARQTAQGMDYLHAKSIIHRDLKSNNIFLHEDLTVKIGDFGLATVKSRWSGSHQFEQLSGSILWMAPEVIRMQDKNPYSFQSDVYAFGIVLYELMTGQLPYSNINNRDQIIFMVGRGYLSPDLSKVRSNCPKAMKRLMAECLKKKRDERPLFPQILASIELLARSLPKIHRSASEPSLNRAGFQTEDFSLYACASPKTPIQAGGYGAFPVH
Btk, sequence (Q06187 whole entry): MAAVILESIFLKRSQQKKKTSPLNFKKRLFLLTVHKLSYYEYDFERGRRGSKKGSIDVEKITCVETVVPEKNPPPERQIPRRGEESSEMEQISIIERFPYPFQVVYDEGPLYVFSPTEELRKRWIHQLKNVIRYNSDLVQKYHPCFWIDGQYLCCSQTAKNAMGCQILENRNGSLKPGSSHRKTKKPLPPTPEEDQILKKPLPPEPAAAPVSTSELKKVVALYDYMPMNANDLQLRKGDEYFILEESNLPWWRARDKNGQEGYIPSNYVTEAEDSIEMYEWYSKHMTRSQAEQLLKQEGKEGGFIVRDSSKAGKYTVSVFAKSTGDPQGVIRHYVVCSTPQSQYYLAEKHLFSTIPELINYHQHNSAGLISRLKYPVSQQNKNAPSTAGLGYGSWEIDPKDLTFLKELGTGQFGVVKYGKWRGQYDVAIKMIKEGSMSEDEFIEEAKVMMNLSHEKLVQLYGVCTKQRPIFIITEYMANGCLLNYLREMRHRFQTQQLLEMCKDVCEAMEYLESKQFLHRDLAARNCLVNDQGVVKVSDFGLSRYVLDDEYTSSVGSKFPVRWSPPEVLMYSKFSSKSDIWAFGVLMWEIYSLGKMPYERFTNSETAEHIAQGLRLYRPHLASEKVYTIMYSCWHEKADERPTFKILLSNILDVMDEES
B-Raf V600E, sequence (P15056 whole entry V600E): as the sequence (P15056 whole entry) above, with V600E counted along it
Kit, sequence (P10721 26-976): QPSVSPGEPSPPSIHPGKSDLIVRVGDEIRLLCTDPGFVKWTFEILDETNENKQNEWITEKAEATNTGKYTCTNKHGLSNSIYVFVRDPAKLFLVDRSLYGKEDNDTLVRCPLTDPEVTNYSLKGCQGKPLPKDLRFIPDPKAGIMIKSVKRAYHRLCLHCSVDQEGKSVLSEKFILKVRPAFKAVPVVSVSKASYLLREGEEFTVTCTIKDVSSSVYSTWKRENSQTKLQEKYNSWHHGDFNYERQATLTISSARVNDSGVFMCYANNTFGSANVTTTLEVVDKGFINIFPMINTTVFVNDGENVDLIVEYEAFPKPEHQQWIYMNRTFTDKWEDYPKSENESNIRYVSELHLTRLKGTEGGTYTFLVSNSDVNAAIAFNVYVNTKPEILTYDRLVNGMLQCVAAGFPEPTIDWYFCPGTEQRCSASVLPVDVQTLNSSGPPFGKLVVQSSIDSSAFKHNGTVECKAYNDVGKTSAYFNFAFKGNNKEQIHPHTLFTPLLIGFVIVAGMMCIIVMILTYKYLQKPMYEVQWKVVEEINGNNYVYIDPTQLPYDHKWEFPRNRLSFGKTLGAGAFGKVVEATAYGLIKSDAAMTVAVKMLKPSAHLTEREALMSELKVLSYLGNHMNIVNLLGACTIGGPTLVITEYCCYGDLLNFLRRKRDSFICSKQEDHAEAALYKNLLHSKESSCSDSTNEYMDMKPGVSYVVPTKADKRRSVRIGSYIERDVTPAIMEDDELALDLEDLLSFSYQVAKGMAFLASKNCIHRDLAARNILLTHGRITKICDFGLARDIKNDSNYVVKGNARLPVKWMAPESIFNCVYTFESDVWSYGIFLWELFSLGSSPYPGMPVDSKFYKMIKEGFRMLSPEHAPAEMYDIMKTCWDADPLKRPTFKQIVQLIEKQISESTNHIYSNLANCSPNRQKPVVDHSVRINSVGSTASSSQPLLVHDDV

COc1ncc(-c2cnc3[nH]cc(C(=O)c4c(F)ccc(NS(=O)(=O)c5ccccc5F)c4F)c3c2)cn1 [P-2041, N-{2,4-Difluoro-3-[5-(2-methoxy-pyrimidin-5-yl)-1H-pyrrolo[2,3-b]pyridine-3-carbonyl]-phenyl}-2-fluoro-benzenesulfonamide]
not listed: MAP4K4
≥ 5.00: all other assays above

COc1ncc(-c2cnc3[nH]cc(C(=O)c4c(F)ccc(NS(=O)(=O)c5cccc(F)c5)c4F)c3c2)cn1 [P-2045, N-{2,4-Difluoro-3-[5-(2-methoxy-pyrimidin-5-yl)-1H-pyrrolo[2,3-b]pyridine-3-carbonyl]-phenyl}-3-fluoro-benzenesulfonamide]
not listed: Kdr | Kit | MAP4K4
≥ 5.00: all other assays above

COc1ncc(-c2cnc3[nH]cc(C(=O)c4c(F)ccc(NS(=O)(=O)c5ccccn5)c4F)c3c2)cn1 [P-2079]
not listed: Kit | MAP4K4
≥ 5.00: all other assays above

COc1ncc(-c2cnc3[nH]cc(C(=O)c4c(F)ccc(NS(=O)(=O)c5ncn[nH]5)c4F)c3c2)cn1 [P-2080]
not listed: Kit | MAP4K4
≥ 5.00: all other assays above

NC(=O)c1cccc(-c2cnc3[nH]cc(C(=O)c4cccc(NS(=O)(=O)c5cccnc5)c4)c3c2)c1 [P-2147, 3-{3-[3-(Pyridine-3-sulfonylamino)-benzoyl]-1H-pyrrolo[2,3-b]pyridin-5-yl}-benzamide]
not listed: TEC
≥ 5.00: all other assays above

CCS(=O)(=O)Nc1ccc(F)c(C(=O)c2c[nH]c3ncc(-c4cnc(OC)nc4)cc23)c1F [P-2286, Ethanesulfonic acid {2,4-difluoro-3-[5-(2-methoxy-pyrimidin-5-yl)-1H-pyrrolo[2,3-b]pyridine-3-carbonyl]-phenyl}-amide]
not listed: Kit | TEC | MAP4K4
≥ 5.00: all other assays above

COc1ncc(-c2cnc3[nH]cc(C(=O)c4c(F)ccc(NS(=O)(=O)C(C)C)c4F)c3c2)cn1 [P-2287, Propane-2-sulfonic acid {2,4-difluoro-3-[5-(2-methoxy-pyrimidin-5-yl)-1H-pyrrolo[2,3-b]pyridine-3-carbonyl]-phenyl}-amide]
not listed: Kit | MAP4K4
≥ 5.00: all other assays above

COc1ncc(-c2cnc3[nH]cc(C(=O)c4c(F)ccc(NS(C)(=O)=O)c4F)c3c2)cn1 [P-2295, N-{2,4-Difluoro-3-[5-(2-methoxy-pyrimidin-5-yl)-1H-pyrrolo[2,3-b]pyridine-3-carbonyl]-phenyl}-methanesulfonamide]
≥ 5.00: B-Raf | B-Raf V600E | Btk | Kdr | C-Raf | PI3Kα

CCC(C)S(=O)(=O)Nc1ccc(F)c(C(=O)c2c[nH]c3ncc(-c4cnc(OC)nc4)cc23)c1F (stereo not drawn) [P-2323, Butane-2-sulfonic acid {2,4-difluoro-3-[5-(2-methoxy-pyrimidin-5-yl)-1H-pyrrolo[2,3-b]pyridine-3-carbonyl]-phenyl}-amide]
not listed: Kit | MAP4K4
≥ 5.00: all other assays above

COc1ncc(-c2cnc3[nH]cc(C(=O)c4c(F)ccc(NS(=O)(=O)CCC(F)(F)F)c4F)c3c2)cn1 [P-2333]
not listed: Btk | MAP4K4
≥ 5.00: all other assays above

COc1ncc(-c2cnc3[nH]cc(C(=O)c4c(F)ccc(NS(=O)(=O)C5CCCC5)c4F)c3c2)cn1 [P-2372, Cyclopentanesulfonic acid {2,4-difluoro-3-[5-(2-methoxy-pyrimidin-5-yl)-1H-pyrrolo[2,3-b]pyridine-3-carbonyl]-phenyl}-amide]
not listed: MAP4K4
≥ 5.00: all other assays above

COc1ncc(-c2cnc3[nH]cc(C(=O)c4c(F)ccc(NS(=O)(=O)C5CCC5)c4F)c3c2)cn1 [P-2373, Cyclobutanesulfonic acid {2,4-difluoro-3-[5-(2-methoxy-pyrimidin-5-yl)-1H-pyrrolo[2,3-b]pyridine-3-carbonyl]-phenyl}-amide]
not listed: Btk | Kit | MAP4K4
≥ 5.00: all other assays above

COc1ncc(-c2cnc3[nH]cc(C(=O)c4c(F)ccc(NS(=O)(=O)N(C)C)c4F)c3c2)cn1 [P-2399, N,N-dimethylamino-sulfonic acid {2,4-difluoro-3-[5-(2-methoxy-pyrimidin-5-yl)-1H-pyrrolo[2,3-b]pyridine-3-carbonyl]-phenyl}-amide]
not listed: Kit | MAP4K4
≥ 5.00: all other assays above

CCN(CC)S(=O)(=O)Nc1ccc(F)c(C(=O)c2c[nH]c3ncc(-c4cnc(OC)nc4)cc23)c1F [P-2401, N,N-diethylamino-sulfonic acid {2,4-difluoro-3-[5-(2-methoxy-pyrimidin-5-yl)-1H-pyrrolo[2,3-b]pyridine-3-carbonyl]-phenyl}-amide]
not listed: B-Raf | MAP4K4
≥ 5.00: all other assays above

COc1ncc(-c2cnc3[nH]cc(C(=O)c4c(F)ccc(NS(=O)(=O)N5CCOCC5)c4F)c3c2)cn1 [P-2402, Morpholine-4-sulfonic acid {2,4-difluoro-3-[5-(2-methoxy-pyrimidin-5-yl)-1H-pyrrolo[2,3-b]pyridine-3-carbonyl]-phenyl}-amide]
not listed: Kdr | Kit | MAP4K4
≥ 5.00: all other assays above
